Data on eleven compounds can be found in paper PMC7594722, “Investigation of pesticides on honey bee carbonic anhydrase inhibition” (Journal of Enzyme Inhibition and Medicinal Chemistry, 2020).

Like-named read-outs stand apart in the source and are kept apart here.

Data set [1] has as its target AmCA (Apis mellifera spermatheca carbonic anhydrase). As to conditions: AmCA inhibition data from previous study; cited from earlier work.
The target is the same in data set [2]. Description: AmCA inhibition, colorimetric CO2 hydrase assay. Type of data set: biochemical. As to conditions: AmCA from honey bee spermatheca, triplicate, enzyme concentration 8.9 nM. Here is the method:
Bee spermatheca samples were washed three times with 50 mM Tris/Sulphate (pH 7.8). Spermatecha samples taken from 200 bees were combined and homogenised with liquid nitrogen, then placed in the same buffer and centrifuged at 4 °C, 15,000 g for 30 min. The precipitate portion was discarded and the supernatant portion was separated and used in subsequent studies.
The enzyme was purified using Sepharose-4B-sulfanilamide affinity gel prepared by our group. Aniline was used as a spacer arm in the chromatography column. The column was then equilibrated with 25 mM Tris-HCl/0.1M Na2SO4 (pH 8.7) and the gel was washed with 25 mM Tris-HCl/22 mM Na2SO4 (pH 8.7). Finally, elution was performed with 1 M NaCl/25 mM Na2HPO4 (pH 6.3). The temperature was kept at 4 °C during all experiments.
The effects of methomyl, oxamyl, deltamethrin, dichlorodiphenyltrichloroethane ([…]), cypermethrin and diazinon on AmCA activities were assayed colorimetrically using the CO2 hydrase assay, in triplicate at each concentration of inhibitor (ranging from 1 nM to 10 mM). Control enzyme activity was taken as 100%. An activity % versus inhibitor graph was drawn for all pesticides (Microsoft Office 2000, Excel). Pesticide concentrations that caused 50% inhibition (IC50) of the enzyme activity were thus obtained graphically using a regression software. The enzyme concentration in the assay system was 8.9 nM.

The subject of data set [3] is honey bees and bumblebees. Particulars: cited from earlier work.
In data set [4] the test system is honey bees and bumblebees. As to conditions: cited from earlier work. The source holds these as a separate data set.

For the compound `CCNc1nc(Cl)nc(NC(C)C)n1` [Atrazine, atrazine], in data set [1], the IC50 is 16.5 nM.

`CNC(=O)Oc1cccc2ccccc12` [Carbaryl, carbaryl]: the IC50 in data set [1] is 3.1 nM.

As for `CNC(=O)Oc1cccc2c1OC(C)(C)C2` [Carbonfuran, carbofuran], the IC50 in data set [1] was 8.7 nM.

For the compound `CC1(C)C(C=C(Cl)Cl)C1C(=O)OC(C#N)c1cccc(Oc2ccccc2)c1` (stereo not drawn) [Cypermethrin, cypermethrin], the IC50 in data set [2] was 7.8 ± 0.3 nM. Further, the “topical lethal dose (LD50)” value in data set [3] is on record as 0.03 μg/bee. Further, the “oral dose rates (oral LD50)” value in data set [4] is given as 0.06 μg/bee.

The compound `CC1(C)[C@H](C(=O)O[C@H](C#N)c2cccc(Oc3ccccc3)c2)[C@@H]1C=C(Br)Br` [Deltamethrin, deltamethrin] returned an IC50 in data set [2] of 2.8 ± 0.1 nM. In data set [3], the “topical lethal dose (LD50)” value is recorded as 0.02 μg/bee.

Compound `CCOP(=S)(OCC)Oc1cc(C)nc(C(C)C)n1` [Diazinon, diazinon] yielded an IC50 in data set [2] of 38.5 ± 1.2 nM. Moreover, the “topical lethal dose (LD50)” value in data set [3] is recorded as 0.38 μg/bee. Besides, the “oral dose rates (oral LD50)” value in data set [4] is 0.21 μg/bee.

`CNC(=O)ON=C(C)SC` [Methomyl, methomyl] registered a half-maximal inhibitory concentration (IC50) in data set [2] of 2.3 ± 0.1 nM. Besides, in data set [3], the “topical lethal dose (LD50)” value is on record as 0.49 μg/bee. Besides, the “oral dose rates (oral LD50)” value in data set [4] was 3.38 μg/bee.

Compound `CNC(=O)O/N=C(\SC)C(=O)N(C)C` [Oxamyl, oxamyl] gave an IC50 in data set [2] of 2.5 ± 0.1 nM.

Take `CNC(=O)Oc1ccccc1OC(C)C` [Propoxur, propoxur]: the IC50 in data set [1] is 32.1 nM.

Consider `CCNc1nc(Cl)nc(NCC)n1` [Simazin, simazine], for which the IC50 in data set [1] is 27.3 nM.

Take `CC(C)(C)C(O)(CCc1ccc(Cl)cc1)Cn1cncn1` (stereo not drawn) [Tebuconazole, tebuconazole]: the IC50 in data set [1] was 3 nM.

One may read the IC50 as the midpoint of a concentration-inhibition curve.
